Data taken from US10702538B2, “Ship inhibition to induce activation of natural killer cells” (THE RESEARCH FOUNDATION FOR THE STATE UNIVERSITY OF NEW YORK, priority 2014, dated 2020).
Entries after “also recorded” stand apart in the source; their conditions may differ.

Experiments:
RMA-Rae1 cells = test: In vivo rejection of GFP expressing RMA-Rae1 tumor cells, peritoneal lavage and flow cytometry; design: species or system C57BL/6 mice; conditions: listed as SHIPi
Description: FIG. 4A; 5×10^5 GFP expressing RMA-Rae1 cells were injected into C57BL/6 mice. Mice were treated with either SHIPi or vehicle for two days. Peritoneal lavage was performed on the third day and cells collected by lavage were analyzed by flow cytometry. Flow cytometry plots indicated GFP positive cells after removal of dead cells and non-singlets via electronic gating. FIG. 4B: Graph represents poled data from two independent experiments using at least 4 SHIPi treated mice and 4 vehicle treated mice in each experiment.
FIG. 5A: 5×10^5 GFP expressing RMA-Rae1 cells were injected into C57BL/6 once or RAG1^−/− mice. Mice were treated with either SHIPi or vehicle for two days. Peritoneal lavage was performed on the third day and cells collected by lavage were analyzed by flow cytometry. Flow cytometry plots indicated GFP positive cells after removal of dead cells and nom-singlets via electronic gating. FIG. 5B: Graph summarizes data from 5 SHIPi treated C57BL/6 mice, 5 SHIPi treated RAG1^−/− mice, 5 vehicle treated C57BL/6 mice, and 5 vehicle treated RAG1^−/− mice.
(§1) To determine if short term administration of SHIPi could have an in vivo functional effect we injected 5×10^5 RMA cells transected with the NKG2D ligand Rae1 into C57BL/6 mice. RMA is a mouse BL/6 derived T cell lymphoma cell line (raucher virus induced cell leukemia cell line); thus a rejection of a tumor graft in BL/6 mice is due to the presence of the Rae1 ligand or due to SHIPi treatment. Mice were treated with SHIPi (33 mg/kg) for two consecutive days and on the third day peritoneal lavage was performed to recover peritoneal contents. […] Finally, showing that there is a survival benefit for mice receiving short term SHIPi, C57BL/6 mice were injected with 1×10^5 RMA or RMA cells transected with the NKG2D ligand Rae1 and then were treated two consecutive days with SHIPi or with vehicle control. This was repeated each week such that mice received treatment or vehicle twice a week with five days rest in between each treatment. Treatment start days were spaced a week apart.

NK cells = test: IFNγ production assay: ex vivo stimulation of NK cells from SHIPi treated mice; assay type: in vivo; conditions: vs vehicle treated mice; for IFNγ production by NK cells following ex vivo stimulation with anti-NK1.1, anti-NKp46 or anti-NKG2D antibody: mice treated daily 33 mg/kg for two days, 33 mg/kg
Description: IFNγ production assay methods: Mice were treated daily with SHIPi (33 mg/kg) for two days. Mice were sacrificed by CO2 toxicity on the third day. Splenocytes were harvested and incubated for four-five hours in six well plates in the presence of Golgiplug (BD) either alone, in plates coated with either anti-NK1.1 (PK136), anti-NKp46 (2PA1.4) or anti-NKG2D (A10) antibody or in uncoated plates but with PMA ([…]) and ionomycin as a positive control. After incubation splenocytes were removed from the plates, Fc Receptors were blocked (2.4G2) and cells were stained with the Invitrogen Aqua Live/Dead cell exclusion dye. NK cells were identified by staining for either NK1.1 (PK136) or NKp46 (29A1.4) and […] (145-2C11). T cells were excluded. Cells were fixed and permeabilized (BD Cytofx/Cytoperm kit), intracellular Fc receptors were blocked (2.4G2) and stained for IFNγ (XMG1.2). Samples were run on a BD Fortessa flow cytometer and analyzed using FloJo software.

RMA cells = test: Survival of RMA tumor bearing mice; assay type: in vivo, C57BL/6 mice; conditions: 1×10^5 cells; treated two consecutive days each week; vs vehicle treated groups
Description: (§2) FIG. 2: C57BL/6 mice received either RM A cells (3AC RMA and Veh RMA groups) or RMA cells transfected with the NKG2D ligand Rae1 (3AC Rae1 and Veh Rae1 groups) and were treated two consecutive days each week starting twelve hours after receiving the tumor. […] The Kaplan-Meyer survival curve represents two independent, pooled, experiments of RMA-Rae1 tumor bearing mice treated with either vehicle (n=10/experiment) or SHIPi (n=10/experiment) or one experiment of RMA tumor bearing mice treated with either vehicle (n=10/experiment) or SHIPi (n=10/experiment).
as §1, with “This was repeated each week such that mice received treatment or vehicle twice a week with five days rest in between each treatment. Treatment start days were spaced a week apart.” left out

[1] = tested on: RMA cells transfected with the NKG2D ligand Rae1; test: Survival of RMA-Rae1 tumor bearing mice; assay type: in vivo, C57BL/6 mice; conditions: 1×10^5 cells; treated two consecutive days each week; vs the other three groups
Description: as §2
as §1, with “This was repeated each week such that mice received treatment or vehicle twice a week with five days rest in between each treatment. Treatment start days were spaced a week apart.” left out

[2] = tested on: peritoneal NK and myeloid cells; test: Peritoneal cell populations in RMA-Rae1 tumor bearing mice (flow cytometry of lavage); assay type: in vivo, C57BL/6 mice; conditions: after two days of treatment, vs vehicle
Description: FIGS. 6A-6D: SHIPi treated mice have increased peritoneal myeloid and NK cells. FIGS. 6A-D: 5×10^5 GFP expressing RMA-Rae1 cells were injected into C57BL/6 mice. Mice were treated for two days with SHIPi or vehicle alone. Peritoneal lavage was performed on the third day. Cells collected by lavage were stained with anti-NK1.1, anti-CD3ε, anti-CD19, anti-CD11b and anti-GR1 antibodies and were analyzed by flow cytometry. All populations were determined after backgating on singlets and viable cells. NK cells are NK1.1^+CD3ε^−CD19^−, T cells are CD3ε^+NK1.1^−CD19^−, B cells are CD19^+NK1.1^−CD3ε^− and myeloid cells are CD11b^+GR1^+. FIG. 6B: Graph represents pooled data from two independent experiments using at least 4 SHIPi treated mice and 4 vehicle treated mice in each experiment.
To determine if short term administration of SHIPi could have an in vivo functional effect we injected 5×10^5 RMA cells transected with the NKG2D ligand Rae1 into C57BL/6 mice. RMA is a mouse BL/6 derived T cell lymphoma cell line (raucher virus induced cell leukemia cell line); thus a rejection of a tumor graft in BL/6 mice is due to the presence of the Rae1 ligand or due to SHIPi treatment. Mice were treated with SHIPi (33 mg/kg) for two consecutive days and on the third day peritoneal lavage was performed to recover peritoneal contents. […]

[3] = tested on: immunoregulatory cells (MDSC, nTreg, neutrophils); test: Preliminary studies: immunoregulatory cells in mice after SHIP inhibitor; assay type: in vivo, wt C57BL/76 mice
Description: K118 was administered in water, and in wt C57BL/76 mice.

SHIP1 = target: T1, SHIP1 (Homo sapiens, UniProt Q92835); test: SHIP1 inhibitor activity; assay type: biochemical; conditions: compared with 3AC
T1 sequence (Q92835 1-1189): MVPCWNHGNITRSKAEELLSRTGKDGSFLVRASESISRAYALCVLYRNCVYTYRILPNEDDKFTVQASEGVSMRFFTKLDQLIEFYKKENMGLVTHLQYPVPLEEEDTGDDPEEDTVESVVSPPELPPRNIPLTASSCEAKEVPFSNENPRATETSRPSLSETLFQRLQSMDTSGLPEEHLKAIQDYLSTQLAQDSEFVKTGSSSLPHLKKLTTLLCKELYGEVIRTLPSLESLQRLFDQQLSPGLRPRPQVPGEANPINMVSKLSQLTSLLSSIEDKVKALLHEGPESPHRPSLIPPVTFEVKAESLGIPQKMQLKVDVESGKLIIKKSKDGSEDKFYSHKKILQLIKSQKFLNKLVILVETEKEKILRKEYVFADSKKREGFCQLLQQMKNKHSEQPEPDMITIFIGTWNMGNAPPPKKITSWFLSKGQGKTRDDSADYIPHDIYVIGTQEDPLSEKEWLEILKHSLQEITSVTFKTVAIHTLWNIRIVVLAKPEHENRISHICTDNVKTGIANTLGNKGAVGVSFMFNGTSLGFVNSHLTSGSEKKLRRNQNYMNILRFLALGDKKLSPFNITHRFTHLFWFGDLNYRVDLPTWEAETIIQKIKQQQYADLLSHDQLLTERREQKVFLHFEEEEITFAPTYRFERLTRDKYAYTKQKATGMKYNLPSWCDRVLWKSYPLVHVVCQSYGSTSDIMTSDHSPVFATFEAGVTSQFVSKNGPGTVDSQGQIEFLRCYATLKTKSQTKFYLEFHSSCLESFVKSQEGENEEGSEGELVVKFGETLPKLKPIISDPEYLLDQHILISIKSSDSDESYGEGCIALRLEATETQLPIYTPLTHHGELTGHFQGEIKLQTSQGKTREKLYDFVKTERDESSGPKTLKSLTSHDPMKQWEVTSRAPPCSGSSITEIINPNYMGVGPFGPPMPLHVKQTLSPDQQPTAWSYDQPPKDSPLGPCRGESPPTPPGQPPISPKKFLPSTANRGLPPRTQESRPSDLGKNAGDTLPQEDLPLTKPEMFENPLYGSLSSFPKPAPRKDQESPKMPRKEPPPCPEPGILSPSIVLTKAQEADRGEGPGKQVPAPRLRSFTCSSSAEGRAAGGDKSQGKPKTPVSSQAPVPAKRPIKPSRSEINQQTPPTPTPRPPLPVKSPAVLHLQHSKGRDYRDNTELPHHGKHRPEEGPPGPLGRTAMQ

[4] = spleen, orally at 10 mg/kg in water

Row | Structure (SMILES) | Tumor burden (GFP positive RMA-Rae1 cells in peritoneal lavage) (RMA-Rae1 cells; C57BL/6 mice, 5×10^5 cells, 33 mg/kg two consecutive days, lavage on third day, vs vehicle, 33 mg/kg) | Protection against RMA-Rae1 tumor in mice lacking B and T cells (RMA-Rae1 cells; RAG1−/− mice (printed RAKG−/−), two days treatment) | Protection against RMA-Rae1 tumor after in vivo depletion of NK cells (RMA-Rae1 cells; pretreated with anti-NK1.1 antibody PK136 200 ug 24 hours before tumor injection, vs isotype control antibody) | IFNγ production by NK cells following ex vivo stimulation with anti-NK1.1, anti-NKp46 or anti-NKG2D antibody (NK cells) | IFNγ production by NK cells following ex vivo stimulation with anti-NK1.1, anti-NKp46 or anti-NKG2D antibody (NK cells; listed as SHIPi) | IFNγ production by NK cells unstimulated or stimulated with PMA and ionomycin (NK cells; mice treated two days) | Survival of RMA tumor bearing mice (RMA cells) | Survival of RMA-Rae1 tumor bearing mice [1] | Peritoneal myeloid cells (CD11b+GR1+) [2] | Numbers of NK cells in the peritoneal cavity ([2]; listed as SHIPi) | Neutrophil numbers ([3]; intraperitoneal injection) | SHIP1 inhibitor activity relative to 3AC (SHIP1) | Water solubility (Water solubility) | Frequency of natural T regulatory cells (nTreg, CD4+CD25+FoxP3+) ([3]; mesenteric lymph node (mLN), orally at 10 mg/kg in water) | Neutrophil numbers ([3]; orally at 10 mg/kg in water) | Frequency of myeloid derived suppressor cells (MDSC) expressing Gr1 and Mac1 [3, 4] | Frequency of natural T regulatory cells (nTreg, CD4+CD25+FoxP3+) [3, 4]
1 | CC(C)CCC[C@@H](C)[C@H]1CC[C@H]2[C@@H]3CCC4C[C@H](N)CC[C@]4(C)[C@H]3CC[C@]12C (stereo partly drawn) [3AC, 3 α-aminocholestane] | significantly reduced tumor burden; also recorded: increased tumor rejection | retained protection; also recorded: not due to B or T cells | protection is significantly reduced | significantly increased IFNγ production; also recorded: significantly increased amounts of IFNγ | significantly increased IFNγ | do not see a significant difference | no significant survival difference | significantly increased survival | increased | significantly increased numbers of NK cells | increased neutrophil numbers |  |  |  |  |  | 
2 | C[C@@]12CCC[C@H]1[C@@H]1CC[C@H]3C[C@@H](N)CC[C@]3(C)[C@H]1CC2.Cl [K118, 3β-amino-5α-androstane hydrochloride] |  |  |  |  |  |  |  |  |  |  |  | comparable SHIP1 inhibitor activity | water-soluble | Significant increases | trend for increased neutrophil numbers | significant increase | Significant increases
